Measured values published in PubChem BioAssay (NCI).
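Each compound was tested at five concentrations against cells in 96-well plates for 48 hours. At the TGI there is no net growth.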

Legend:
Assay in all cases: NCI anticancer screen, dose series, 48 h
KM12 colon = system: KM12 colon
UACC-257 melanoma = system: UACC-257 melanoma
LOX IMVI melanoma = system: LOX IMVI melanoma
EKVX NSCLC = system: EKVX NSCLC
NCI-H460 lung = system: NCI-H460 lung
M14 melanoma = system: M14 melanoma
DU-145 prostate = system: DU-145 prostate
UO-31 renal = system: UO-31 renal
T-47D breast = system: T-47D breast
MDA-MB-435 = system: MDA-MB-435
RXF 393 renal = system: RXF 393 renal
IGROV1 ovarian = system: IGROV1 ovarian
OVCAR-5 ovarian = system: OVCAR-5 ovarian
SW-620 colon = system: SW-620 colon
HOP-62 NSCLC = system: HOP-62 NSCLC
HCC-2998 colon = system: HCC-2998 colon
SN12C renal = system: SN12C renal
NCI/ADR-RES ovarian = system: NCI/ADR-RES ovarian
MDA-N = system: MDA-N
OVCAR-4 ovarian = system: OVCAR-4 ovarian
SF-268 CNS = system: SF-268 CNS
BT-549 breast = system: BT-549 breast
SF-295 CNS = system: SF-295 CNS
OVCAR-3 ovarian = system: OVCAR-3 ovarian
HCT-15 colon = system: HCT-15 colon
HT29 colon = system: HT29 colon
MDA-MB-231 breast = system: MDA-MB-231 breast
SK-MEL-2 melanoma = system: SK-MEL-2 melanoma
HCT-116 colon = system: HCT-116 colon
CAKI-1 renal = system: CAKI-1 renal
A498 renal = system: A498 renal
PC-3 prostate = system: PC-3 prostate
MOLT-4 leukemia = system: MOLT-4 leukemia
MALME-3M melanoma = system: MALME-3M melanoma
ACHN renal = system: ACHN renal
HOP-92 NSCLC = system: HOP-92 NSCLC
NCI-H522 lung = system: NCI-H522 lung
A549 NSCLC = system: A549 NSCLC
OVCAR-8 ovarian = system: OVCAR-8 ovarian
786-0 renal = system: 786-0 renal
UACC-62 melanoma = system: UACC-62 melanoma
K-562 leukemia = system: K-562 leukemia
HS 578T breast = system: HS 578T breast
SR leukemia = system: SR leukemia
TK-10 renal = system: TK-10 renal
SK-MEL-28 melanoma = system: SK-MEL-28 melanoma
SNB-75 CNS = system: SNB-75 CNS
NCI-H23 lung = system: NCI-H23 lung
SNB-19 CNS = system: SNB-19 CNS
U251 CNS = system: U251 CNS
RPMI-8226 leukemia = system: RPMI-8226 leukemia
SF-539 CNS = system: SF-539 CNS
CCRF-CEM leukemia = system: CCRF-CEM leukemia
HL-60(TB) leukemia = system: HL-60(TB) leukemia
NCI-H226 lung = system: NCI-H226 lung
SK-MEL-5 melanoma = system: SK-MEL-5 melanoma

Measured: TGI

O=C(N/N=C\c1cccc(O)c1)c1ccncc1
not listed: RPMI-8226 leukemia | SF-539 CNS | CCRF-CEM leukemia | HL-60(TB) leukemia | NCI-H226 lung | SK-MEL-5 melanoma
> 100 µM: all other assays above

CCOP(=O)(O)C1C(CO)OC(n2ccc(=O)[nH]c2=O)C1O (stereo not given)
not listed: DU-145 prostate | MDA-MB-435 | OVCAR-5 ovarian | NCI/ADR-RES ovarian | NCI-H23 lung | U251 CNS
> 100 µM: all other assays above
